Results reported in patent US12622975B2, “Peptide-conjugated prodrugs” (priority 2019, dated 2026).
Converted amounts (≈) assume the structure as drawn. “Also recorded” adds a separate entry of the source.

Legend:
[1] = tested on: wild type E. coli strain (K-12); test: Bacteria culture and inhibitory activity assay (MIC); type: cell-based; conditions: for Effect of addition of exogenous PLE on inhibitory efficacy: porcine liver esterase 1 U/mL
Method: (§1) Bacteria culture and inhibitory activity assay: Single esterase (BioH, YjfP, FrsA, YbfF, YfbB, YqiA, YeiG, or and YpfH) deletion mutants were purchased from Dharmacon Horizon Discovery (Cambridge, United Kingdom). […] Compounds were added at different concentrations.
Compounds were added at different concentrations.

E. coli (K-12) lysate = test: Hydrolysis assay with E. coli lysate; type: in vitro ADME; conditions: compound 200 μM; for apparent first-order rate constant of hydrolysis: E. coli lysate 0.1 U/mL, pH 7.4 PBS, 37° C.
Method: (§2) Hydrolysis assay: Wild-type E. coli strains (K12) were harvested by centrifugation and the cell pellets were lysed using a sonic device. After centrifugation, the supernatant was collected and the proteinase inhibitor was added in the E. coli lysate. The concentration of E. coli lysate was normalized by the fluorescence intensity of 5-carboxyfluorescein diacetate (CFDA). Briefly, different concentrations of CES (4 U/mL, 2 U/mL, 1 U/mL, 0.5 U/mL, 0.25 U/mL, 0.125 U/mL, 0.0625 U/mL, 0.03125 U/mL, 0.015625 U/mL and 0 U/mL) and different amount of E. coli lysates were prepared in PBS buffer. Followed by, 25 μM of CFDA was added in and incubated at room temperature for 1 hour. Then the fluorescence was tested to draw a fluorescence-concentration dependent curve for figuring out the concentration of E. coli lysates. Solutions of CLsuGG (200 μM) were prepared in pH 7.4 PBS buffer. CES and E. coli lysate (0.1 U/mL) were added and incubated with above solutions at 37° C. for 24 hours. At different time points, the solution was taken out, extracted with an equal volume of butanol, concentrated to dryness, and resuspended with butanol for HPLC analysis. HPLC was performed with Agilent 1100 Series Liquid Chromatograph equipped with an XTerra C18 reverse phase column and Variable Wavelength Detector. The hydrolyzed mixture resuspended in 1 mL of butanol was injected to HPLC mobile phase (0.1% trifluoroacetic acid, the starting ratio: 10% acetonitrile and 90% water). The system was run at a flow rate of 10 mL/min.
as §2, with “analysis.” for “analysis. HPLC was performed with Agilent 1100 Series Liquid Chromatograph equipped with an XTerra C18 reverse phase column and Variable Wavelength Detector. The hydrolyzed mixture resuspended in 1 mL of butanol was injected to HPLC mobile phase (0.1% trifluoroacetic acid, the starting ratio: 10% acetonitrile and 90% water). The system was run at a flow rate of 10 mL/min.”

[2] = Stability in human serum (LC-MS); type: in vitro ADME; conditions: human serum, 200 μM, 37° C.
[3] = tested on: acrA efflux pump deletion mutant of E. coli; conditions: acrA mutant versus wild-type E. coli
Method: (§3) Bacteria culture and inhibitory activity assay: Single esterase (bioH, frsA, ybfF, yfbB, yqiA, yeiG, or ypfH) deletion mutants, bacterial transporter (ydgR, fepA and ompF) deletion mutants and the efflux pump (acrA) deletion mutant were all purchased from Dharmacon Horizon Discovery (Cambridge, United Kingdom). The K12 wild-type E. coli strain (MG1655) was cultured in autoclaved LB medium (25 g/L LB broth/water) in a shaker-incubator overnight to stationary growth phase, and then sub-cultured in the same medium after dilution to OD600 of 0.05. Compounds were added at different concentrations. The mixture of bacteria and compounds were placed (200 μL/well) into 96-well clear flat bottom plates. In all plates, the OD600 was measured before and after a 16 hour incubation at 37° C.
(§4) Several representative peptides conjugating CLsu (e.g., 1c, 1d, 2b and 2c) were chosen to study the effects of conjugated peptides on the uptake of the prodrugs.

[4] = tested on: ydgR, fepA, ompF transporter deletion mutants of E. coli; conditions: mutants versus wild-type E. coli
Method: as §3, §4

[5] = tested on: esterase (bioH, yjfP, frsA, ybfF, yfbB, ypfH, yeiG, or yqiA) deletion mutants of E. coli; type: cell-based; conditions: for reduction of antibacterial activity by deletion of the cytoplasmic esterase: single esterase gene deletion
Method: as §3, with “(BioH, YjfP, FrsA, YbfF, YfbB, YqiA, YeiG,” for “(bioH, frsA, ybfF, yfbB, yqiA, yeiG,”, “or” for “or ypfH) deletion mutants, bacterial transporter (ydgR, fepA”, “YpfH)” for “ompF)”, “mutants” for “mutants and the efflux pump (acrA) deletion mutant”, “were” for “were all”, “after” for “after a”
as §3

carboxylesterase (CES) = test: Hydrolysis assay with exogenous carboxylesterase; type: in vitro ADME, porcine; conditions: CES 0.1 U/mL
Source text: Experimental materials and instruments. All the solvents and chemical reagents were used directly as received from the commercial sources without further purification unless otherwise stated. Carboxylesterase (CES) from porcine liver was purchased from Sigma-Aldrich (lyophilized powder, >15 units/mg solid; Unit definition: One unit will hydrolyze 1.0 μmole of ethyl butyrate to butyric acid and ethanol per min at pH 8.0 at 25). CLsuGG, CLsuG, CLsuGGG were purified with Agilent 1100 Series Liquid Chromatography system, equipped with an XTerra C18 RP column and Variable Wavelength detector.
as §2, with “Briefly, different concentrations of CES (4 U/mL, 2 U/mL, 1 U/mL, 0.5 U/mL, 0.25 U/mL, 0.125 U/mL, 0.0625 U/mL, 0.03125 U/mL, 0.015625 U/mL and 0 U/mL) and different amount of E. coli lysates were prepared in PBS buffer. Followed by, 25 μM of CFDA was added in and incubated at room temperature for 1 hour.” left out, “CES and E. coli lysate (0.1 U/mL) were added and incubated with above solutions at 37° C. for 24 hours.” left out

[6] = tested on: YdgR transporter knockout mutants of E. coli; test: Antibacterial activity against YdgR transporter knockout mutant; type: cell-based; conditions: YdgR mutant versus wild-type E. coli
Method: as §1
To verify whether bacterial oligopeptide transporters are involved in the uptake of CLsuGG, the activities of CLsuGG against the YdgR mutant and wild-type E. coli was compared (FIG. 4A). The deletion of YdgR, an inner membrane (IM) proton-coupled transporter for uptaking di- and tripeptides (Prabhala et al., “The Prototypical Proton-Coupled Oligopeptide Transporter YdgR from Escherichia coli Facilitates Chloramphenicol Uptake into Bacterial Cells,” J. Biol. Chem. 293(3):1007-1017 (2018), which is hereby incorporated by reference in its entirety), indeed rescues the bacteria, i.e., increasing cell viability for about 10%.

[7] = tested on: double esterase (BioH and YjfP) deletion mutant of E. coli; test: Antibacterial activity against double esterase deletion mutant; type: cell-based
Method: as §1
To examine the roles of different intrabacterial esterases on the hydrolysis of CLsuGG, the activities of CLsuGG against eight E. coli mutants that have one of bacterial esterase genes (i.e., BioH, YjfP, FrsA, YbfF, YeiG, YfbB, YpfH or YqiA) deleted was measured. […] To confirm the role of intrabacterial esterases, a double mutant E. coli was generated, with the deletion of BioH and YjfP genes (FIGS. 5C-5D). […] These studies confirm that, after CLsuGG enters E. coli, various esterases in bacterial cytoplasm rapidly convert CLsuGG to the active antibiotic agent (i.e., CL).

HS-5 cells = test: Cell viability assay (MTT), HS-5; type: cell-based, human; conditions: 24 hours
HepG2 cells = test: Cell viability assay (MTT), HepG2; type: cell-based; conditions: 20 μM, 24 hours
Water solubility = type: physicochemical
HEK293 cells = test: Cell viability assay (MTT), HEK293; conditions: 20 μM, 24 hours
E. coli K-12 = conditions: E. coli K-12, literature values; cited from earlier work

Compound	Effect of addition of exogenous PLE on inhibitory efficacy [1]	MIC (μM) ([1]; wild type E. coli (K-12))	apparent first-order rate constant of hydrolysis (E. coli (K-12) lysate)	Compounds remaining (%) 0 h [2]	Compounds remaining (%) 2 h [2]	Compounds remaining (%) 24 h [2]	reduction of the viabilities of the acrA deletion mutant treated by the conjugates [3]	effect of deletion of ydgR, fepA, or ompF on treated bacteria [4]	reduction of antibacterial activity by deletion of the cytoplasmic esterase [5]	other results
NCCCCC(NC(=O)C(CCCCN)NC(=O)CCC(=O)OCC(NC(=O)C(Cl)Cl)C(O)c1ccc([N+](=O)[O-])cc1)C(=O)O (centres unmarked) [Compound 2c]	hardly changes	200 µM (≈ 136 µg/mL)	0.310 h⁻¹	100%	49.2%	0%	50%	hardly rescues the bacteria	about 20%	
O=C(O)CNC(=O)C(CO)NC(=O)CCC(=O)OCC(NC(=O)C(Cl)Cl)C(O)c1ccc([N+](=O)[O-])cc1 (centres unmarked) [Compound 1d]	hardly changes	40 µM (≈ 22.7 µg/mL)	1.267 h⁻¹	100%	16.7%	0%	40%	hardly rescues the bacteria	~10%	
O=C(O)CNC(=O)CNC(=O)CCC(=O)OCC(NC(=O)C(Cl)Cl)C(O)c1ccc([N+](=O)[O-])cc1 (centres unmarked) [CLsuGG]		20 µM (≈ 10.7 µg/mL)	-1.868 h⁻¹							Effect of addition of CES on the MIC value ([1]; exogenous CES): hardly affected; MIC (μg/mL) ([1]; wild type E. coli (K-12)): 10.7 µg/mL (≈ 19.9 µM); time to complete hydrolysis (E. coli (K-12) lysate; intrabacterial esterases 0.1 U/mL): ≤ 2 h; time to complete hydrolysis (carboxylesterase (CES)): more than 12 hours; conversion (carboxylesterase (CES); after 2 hours): around 70%; apparent first-order rate constant of hydrolysis (carboxylesterase (CES); compound 200 μM): -0.443 h⁻¹; increase of cell viability by deletion of YdgR [6]: about 10%; reduction of antibacterial activity by single esterase gene deletion [5]: slightly; antibacterial activity relative to the activity against wild type E. coli [7]: 50%; cytotoxicity / cell viability of HS-5 cells (HS-5 cells; 20 μM): largely innocuous; also recorded: reduced toxicity; cytotoxicity / cell viability of HepG2 cells (HepG2 cells): hardly altered the cytotoxicity of CL; water solubility (Water solubility): soluble; cytotoxicity / cell viability of HEK293 cells (HEK293 cells): hardly altered the cytotoxicity of CL
O=C(CCC(=O)OCC(NC(=O)C(Cl)Cl)C(O)c1ccc([N+](=O)[O-])cc1)NCC(=O)NC(CO)C(=O)O (centres unmarked) [Compound 1c]	hardly changes	20 µM (≈ 11.3 µg/mL)	3.763 h⁻¹	100%	0%	0%	30%	hardly rescues the bacteria	about 20%	
NCCCCC(NC(=O)C(CCCCN)NC(=O)CCC(=O)OCC(NC(=O)C(Cl)Cl)C(O)c1ccc([N+](=O)[O-])cc1)C(=O)O (centres unmarked) [Compound 2b]	hardly changes	200 µM (≈ 136 µg/mL)	0.317 h⁻¹	100%	52.9%	0%	20%	hardly rescues the bacteria	about 20%	
COc1cc(Cc2cnc(N)nc2N)cc(OC)c1OC [trimethoprim]										cytotoxicity of control compounds against HS-5 cells (HS-5 cells; around MIC values (0.5 μM)): relatively low cytotoxicity; MIC (E. coli K-12): 1 µg/mL (≈ 3.44 µM)
